Source: ChEMBL document CHEMBL1201862, “PubChem BioAssay data set” (2004)
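All cell lines were grown in 96-well plates and treated with compound for 48 hours. GI50: concentration for 50% inhibition of growth.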 Calls of active or inactive are those of the source. No stated cut-off is given here; in the data, active = GI50 up to about 1.1 µM and inactive = higher.

What was measured:
Assay in all cases: inhibition of tumour cell growth, NCI panel, 48 h
[1] = system: HL-60
[2] = system: HCC 2998
[3] = system: NCI-H226
[4] = system: Hs-578T
[5] = system: EKVX
[6] = system: A498
[7] = system: NCI-H23
[8] = system: CAKI-1
[9] = system: OVCAR-5
[10] = system: U-251
[11] = system: SF-268
[12] = system: NCI-H522
[13] = system: SN12C
[14] = system: HCT-15
[15] = system: MOLT-4
[16] = system: SF-295
[17] = system: Malme-3M
[18] = system: LOX IMVI
[19] = system: HCT-116
[20] = system: MDA-MB-231

Row | Compound | GI50 [1] | GI50 [2] | GI50 [3] | GI50 [4] | GI50 [5] | GI50 [6] | GI50 [7] | GI50 [8] | GI50 [9] | GI50 [10] | GI50 [11] | GI50 [12] | GI50 [13] | GI50 [14] | GI50 [15] | GI50 [16] | GI50 [17] | GI50 [18] | GI50 [19] | GI50 [20]
1 | CC1(C)CCC(=O)NC1CC(=O)CC1NC(=O)CCC1(C)C (centres undefined) | 32.7 µM (inactive) | > 100 µM (inactive) | > 100 µM (inactive) | > 100 µM (inactive) | > 100 µM (inactive) | > 100 µM (inactive) | > 100 µM (inactive) | > 100 µM (inactive) | > 100 µM (inactive) | > 100 µM (inactive) | > 100 µM (inactive) | > 100 µM (inactive) | > 100 µM (inactive) | > 100 µM | > 100 µM (inactive) | > 100 µM (inactive) | > 100 µM (inactive) | > 100 µM (inactive) | > 100 µM (inactive) | > 100 µM (inactive)
2 | Cc1nc2c(nc1C)-c1c(c3c(n1C)C(=O)CCC3)C(=O)C2=O | 0.232 µM (active) | 1.61 µM (inactive) | 1.41 µM (inactive) | 1.42 µM (inactive) | 1.06 µM (active) | 0.984 µM (active) | 0.743 µM (active) |  | 0.953 µM (active) | 0.213 µM (active) | 0.295 µM (active) | 0.434 µM (active) | 0.216 µM (active) | 0.334 µM | 0.312 µM (active) | 1.75 µM (inactive) | 0.297 µM (active) | 0.186 µM (active) | 0.249 µM (active) | 0.264 µM (active)
3 | CC1(CNCc2ccccc2)CC(CCc2ccccc2)N(C(=O)c2ccc([N+](=O)[O-])cc2)C1Cc1ccc(O)cc1 (centres undefined) | 11.3 µM (inactive) | 13.1 µM (inactive) | 9.93 µM (inactive) | 13.5 µM (inactive) | 14.4 µM (inactive) | 12.9 µM (inactive) | 10.3 µM (inactive) | 12.9 µM (inactive) | 17.6 µM (inactive) | 12.3 µM (inactive) | 13.4 µM (inactive) | 8.79 µM (inactive) | 6.76 µM (inactive) | 12.6 µM | 13.2 µM (inactive) | 11.2 µM (inactive) | 19.2 µM (inactive) | 12.6 µM (inactive) | 10.4 µM (inactive) | 10.3 µM (inactive)
4 | COCCOCCOC1=CC(=O)c2c(O)ccc(O)c2C1=O | 0.505 µM (active) | 1.82 µM (inactive) | 2.3 µM (inactive) | 2.47 µM (inactive) | 2.86 µM (inactive) | 2.67 µM (inactive) | 1.69 µM (inactive) | 0.729 µM (active) |  |  | 2.59 µM (inactive) | 1.57 µM (inactive) | 1.96 µM (inactive) |  | 2.04 µM (inactive) | 1.82 µM (inactive) | 0.149 µM (active) | 1.52 µM (inactive) | 0.307 µM (active) | 1.49 µM (inactive)
5 | Oc1ccccc1/C=N/c1nc2cc3sc(/N=C/c4ccccc4O)nc3cc2s1 | 4.44 µM (inactive) | > 100 µM (inactive) | 26.4 µM (inactive) | 21.5 µM (inactive) | 51.4 µM (inactive) | 26.3 µM (inactive) | 6.21 µM (inactive) | 37.2 µM (inactive) | > 64.7 µM (inactive) | > 70.5 µM (inactive) | 50.9 µM (inactive) | 9.77 µM (inactive) | > 60.5 µM (inactive) | 19.2 µM | 0.889 µM (active) | > 54.3 µM (inactive) | > 100 µM (inactive) | 34.2 µM (inactive) | 38.9 µM (inactive) | > 100 µM (inactive)
6 | CCN(CCCl)c1ccc(NC(=O)c2cc(C(=O)NCCN(C)C)cc(C(=O)Nc3ccc(N(CC)CCCl)cc3)c2)cc1 | 0.0743 µM (active) | 10.6 µM (inactive) | 3.94 µM (inactive) | 0.513 µM (active) |  | 18.5 µM (inactive) | 3.33 µM (inactive) | 27.5 µM (inactive) | 16.5 µM (inactive) | 2.18 µM (inactive) | 0.891 µM (active) | 2.3 µM (inactive) | 2.08 µM (inactive) | 51.1 µM | 0.151 µM (active) | 9.46 µM (inactive) | 13.6 µM (inactive) | 1.36 µM (inactive) | 3.03 µM (inactive) | 15.6 µM (inactive)
7 | CCN(CC)CCN1CCN=c2c3cc(OC)ccc3n3cnc4ccc1c2c43 | 0.43 µM (active) | 0.585 µM (active) | 1.54 µM (inactive) | 1.63 µM (inactive) | 1.01 µM (active) | 0.746 µM (active) | 0.713 µM (active) | 0.621 µM (active) | 0.736 µM (active) | 0.789 µM (active) | 0.466 µM (active) | 1.49 µM (inactive) | 0.429 µM (active) | 0.211 µM | 0.0385 µM (active) | 0.548 µM (active) | 1.22 µM (inactive) | 0.311 µM (active) | 0.3 µM (active) | 0.483 µM (active)
8 | CCOC(=O)c1sc(N/N=C2\NC(=O)/C(=C/c3ccc([N+](=O)[O-])cc3)S2)nc1C | 22.8 µM (inactive) | 27.4 µM (inactive) | 18.7 µM (inactive) | 33.9 µM (inactive) | 15.7 µM (inactive) | 26.1 µM (inactive) | 24.4 µM (inactive) | 22.1 µM (inactive) | 22.6 µM (inactive) | 26.1 µM (inactive) | 27.5 µM (inactive) | 17.7 µM (inactive) | 30.4 µM (inactive) | 19.7 µM | 10.3 µM (inactive) | 20.4 µM (inactive) |  | 19.8 µM (inactive) | 16.8 µM (inactive) | 19.5 µM (inactive)
